Source: PubChem BioAssay (NCI)
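Following 48 hours of exposure in 96-well plates, responses at five concentrations were used to interpolate endpoints linearly. The concentration for full growth arrest is given as TGI.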

What was measured:
Assay in all cases: DTP human tumour cell line panel, 48 h
NCI-H226 lung = tested on: NCI-H226 lung
SF-295 CNS = tested on: SF-295 CNS
A549 NSCLC = tested on: A549 NSCLC
MDA-MB-435 = tested on: MDA-MB-435
MALME-3M melanoma = tested on: MALME-3M melanoma
HCT-15 colon = tested on: HCT-15 colon
786-0 renal = tested on: 786-0 renal
CAKI-1 renal = tested on: CAKI-1 renal
BT-549 breast = tested on: BT-549 breast
NCI-H460 lung = tested on: NCI-H460 lung
SF-268 CNS = tested on: SF-268 CNS

For Cc1[nH]n(-c2nc(O)c(C)c(=O)[nH]2)c(=O)c1CCO, the TGI (NCI-H226 lung) was > 100 µM, the TGI (SF-295 CNS) was > 100 µM and the TGI (A549 NSCLC) was > 100 µM. The TGI (MDA-MB-435) was > 100 µM, the TGI (MALME-3M melanoma) was > 100 µM and the TGI (HCT-15 colon) was > 100 µM. For the same compound, the TGI (786-0 renal) was > 100 µM, the TGI (CAKI-1 renal) was > 100 µM and the TGI (BT-549 breast) was > 100 µM. For the same compound, the TGI (NCI-H460 lung) was > 100 µM and the TGI (SF-268 CNS) was > 100 µM.
For CC1(C)OC[C@@]2([C@@H]3CC[C@@H](C3)C2(C)C)N1O, the TGI (NCI-H226 lung) was > 100 µM, the TGI (SF-295 CNS) was > 100 µM and the TGI (A549 NSCLC) was > 100 µM. For the same compound, the TGI (MDA-MB-435) was > 100 µM, the TGI (MALME-3M melanoma) was > 100 µM and the TGI (HCT-15 colon) was > 100 µM. The TGI (786-0 renal) was > 100 µM, the TGI (CAKI-1 renal) was > 100 µM and the TGI (BT-549 breast) was > 100 µM. The TGI (NCI-H460 lung) was > 100 µM and the TGI (SF-268 CNS) was > 100 µM.
For CC1CSc2nc3[nH]c(=S)[nH]c3c(=O)n2C1 (configuration not stated), the TGI (NCI-H226 lung) was > 100 µM, the TGI (SF-295 CNS) was > 100 µM and the TGI (A549 NSCLC) was > 100 µM. For the same compound, the TGI (MDA-MB-435) was > 100 µM, the TGI (MALME-3M melanoma) was > 100 µM and the TGI (HCT-15 colon) was > 100 µM. The TGI (786-0 renal) was > 100 µM, the TGI (CAKI-1 renal) was > 100 µM and the TGI (BT-549 breast) was > 100 µM. For the same compound, the TGI (NCI-H460 lung) was > 100 µM and the TGI (SF-268 CNS) was > 100 µM.
With C(/C=N/NC1=NCCN1)=N\NC1=NCCN1 the TGI (NCI-H226 lung) was > 100 µM, the TGI (SF-295 CNS) was > 100 µM and the TGI (A549 NSCLC) was > 100 µM. The TGI (MDA-MB-435) was > 100 µM, the TGI (MALME-3M melanoma) was > 100 µM and the TGI (HCT-15 colon) was > 100 µM. For the same compound, the TGI (786-0 renal) was > 100 µM, the TGI (CAKI-1 renal) was > 100 µM and the TGI (BT-549 breast) was > 100 µM. For the same compound, the TGI (NCI-H460 lung) was > 100 µM and the TGI (SF-268 CNS) was > 100 µM.
O=C(O)c1cc2c(cc1S(=O)(=O)O)C1C(C3C2C2(Cl)C(Cl)=C(Cl)C3(Cl)C2(Cl)Cl)C2(Cl)C(Cl)=C(Cl)C1(Cl)C2(Cl)Cl (configuration not stated) was tested, and the TGI (NCI-H226 lung) was 49 µM, the TGI (SF-295 CNS) was 60.2 µM and the TGI (A549 NSCLC) was > 100 µM. The TGI (MDA-MB-435) was > 100 µM, the TGI (MALME-3M melanoma) was > 100 µM and the TGI (HCT-15 colon) was > 100 µM. The TGI (786-0 renal) was > 100 µM, the TGI (CAKI-1 renal) was > 100 µM and the TGI (BT-549 breast) was > 100 µM. The TGI (NCI-H460 lung) was > 100 µM and the TGI (SF-268 CNS) was > 100 µM.
In the case of N#C[C@](CO)(NC(=O)OCc1ccccc1)C(F)F, the TGI (NCI-H226 lung) is reported as > 100 µM, the TGI (SF-295 CNS) is reported as > 100 µM and the TGI (A549 NSCLC) is reported as > 100 µM. The TGI (MDA-MB-435) was > 100 µM, the TGI (MALME-3M melanoma) was > 100 µM and the TGI (HCT-15 colon) was > 100 µM. For the same compound, the TGI (786-0 renal) was > 100 µM, the TGI (CAKI-1 renal) was > 100 µM and the TGI (BT-549 breast) was > 100 µM. For the same compound, the TGI (NCI-H460 lung) was > 100 µM and the TGI (SF-268 CNS) was > 100 µM.
In the case of CCOC(=O)c1cc2cc(CSc3ccccc3)ccc2oc1=O, the TGI (NCI-H226 lung) is reported as > 100 µM, the TGI (SF-295 CNS) is reported as > 100 µM and the TGI (A549 NSCLC) is reported as > 100 µM. The TGI (MDA-MB-435) was > 100 µM, the TGI (MALME-3M melanoma) was > 100 µM and the TGI (HCT-15 colon) was > 100 µM. The TGI (786-0 renal) was > 100 µM, the TGI (CAKI-1 renal) was > 100 µM and the TGI (BT-549 breast) was > 100 µM. The TGI (NCI-H460 lung) was > 100 µM and the TGI (SF-268 CNS) was > 100 µM.
For CC(C)(N=NC(C)(C)C1=NCCN1)C1=NCCN1, the TGI (NCI-H226 lung) was > 100 µM, the TGI (SF-295 CNS) was > 100 µM and the TGI (A549 NSCLC) was > 100 µM. For the same compound, the TGI (MDA-MB-435) was > 100 µM, the TGI (MALME-3M melanoma) was > 100 µM and the TGI (HCT-15 colon) was > 100 µM. For the same compound, the TGI (786-0 renal) was > 100 µM, the TGI (CAKI-1 renal) was > 100 µM and the TGI (BT-549 breast) was > 100 µM. For the same compound, the TGI (NCI-H460 lung) was > 100 µM and the TGI (SF-268 CNS) was > 100 µM.
For C/C(=N/NC(=S)N(Cc1ccccn1)Cc1ccccn1)c1cnccn1, the TGI (NCI-H226 lung) was 0.157 µM, the TGI (SF-295 CNS) was 9.37 µM and the TGI (A549 NSCLC) was 14.5 µM. It also gave a TGI (MDA-MB-435) of 35.6 µM, a TGI (MALME-3M melanoma) of 7.53 µM and a TGI (HCT-15 colon) of 87.1 µM. It also gave a TGI (786-0 renal) of 7.97 µM, a TGI (CAKI-1 renal) of 8.08 µM and a TGI (BT-549 breast) of 12.7 µM. For the same compound, the TGI (NCI-H460 lung) was > 33.1 µM and the TGI (SF-268 CNS) was 14 µM.
In the case of N#Cc1nc(Cc2ccccc2)oc1N, the TGI (NCI-H226 lung) is reported as > 100 µM, the TGI (SF-295 CNS) is reported as > 100 µM and the TGI (A549 NSCLC) is reported as > 100 µM. The TGI (MDA-MB-435) was > 100 µM, the TGI (MALME-3M melanoma) was > 100 µM and the TGI (HCT-15 colon) was > 100 µM. The TGI (786-0 renal) was > 100 µM, the TGI (CAKI-1 renal) was > 100 µM and the TGI (BT-549 breast) was > 100 µM. For the same compound, the TGI (NCI-H460 lung) was > 100 µM and the TGI (SF-268 CNS) was > 100 µM.
In the case of CNC(=O)CNC(=O)CCC(=O)N(C)C, the TGI (NCI-H226 lung) is reported as > 100 µM, the TGI (SF-295 CNS) is reported as > 100 µM and the TGI (A549 NSCLC) is reported as > 100 µM. For the same compound, the TGI (MDA-MB-435) was > 100 µM, the TGI (MALME-3M melanoma) was > 100 µM and the TGI (HCT-15 colon) was > 100 µM. The TGI (786-0 renal) was > 100 µM, the TGI (CAKI-1 renal) was > 100 µM and the TGI (BT-549 breast) was > 100 µM. The TGI (NCI-H460 lung) was > 100 µM and the TGI (SF-268 CNS) was > 100 µM.
For OCC1CCCCN1Cc1nc2ccc(Cl)cc2[nH]1 (configuration not stated), the TGI (NCI-H226 lung) was > 100 µM, the TGI (SF-295 CNS) was > 100 µM and the TGI (A549 NSCLC) was > 100 µM. The TGI (MDA-MB-435) was > 100 µM, the TGI (MALME-3M melanoma) was > 100 µM and the TGI (HCT-15 colon) was > 100 µM. The TGI (786-0 renal) was > 100 µM, the TGI (CAKI-1 renal) was > 100 µM and the TGI (BT-549 breast) was > 100 µM. The TGI (NCI-H460 lung) was > 100 µM and the TGI (SF-268 CNS) was > 100 µM.
With CCC(/C=C/c1ccccc1)=N\NC(=S)N/N=C(/C=C/c1ccccc1)CC the TGI (NCI-H226 lung) was > 100 µM, the TGI (SF-295 CNS) was > 100 µM and the TGI (A549 NSCLC) was > 100 µM. For the same compound, the TGI (MDA-MB-435) was > 100 µM, the TGI (MALME-3M melanoma) was > 100 µM and the TGI (HCT-15 colon) was > 100 µM. For the same compound, the TGI (786-0 renal) was > 100 µM, the TGI (CAKI-1 renal) was > 100 µM and the TGI (BT-549 breast) was > 100 µM. For the same compound, the TGI (NCI-H460 lung) was > 100 µM and the TGI (SF-268 CNS) was > 100 µM.
With CCOC(=O)CC[C@@H](NC(=O)c1ccc(NCc2ccc3nc(OC)c(OC)nc3c2)cc1)C(=O)OCC the TGI (NCI-H226 lung) was > 100 µM, the TGI (SF-295 CNS) was > 100 µM and the TGI (A549 NSCLC) was > 100 µM. The TGI (MDA-MB-435) was 99.2 µM, the TGI (MALME-3M melanoma) was 39 µM and the TGI (HCT-15 colon) was > 100 µM. The TGI (786-0 renal) was > 100 µM, the TGI (CAKI-1 renal) was > 100 µM and the TGI (BT-549 breast) was > 100 µM. The TGI (NCI-H460 lung) was 44.3 µM and the TGI (SF-268 CNS) was > 100 µM.
In the case of COC(=O)c1cc(C)ccc1CC(Cc1ccccc1C)C(=O)OC (configuration not stated), the TGI (NCI-H226 lung) is reported as > 100 µM, the TGI (SF-295 CNS) is reported as > 100 µM and the TGI (A549 NSCLC) is reported as > 100 µM. For the same compound, the TGI (MDA-MB-435) was 43.8 µM, the TGI (MALME-3M melanoma) was > 100 µM and the TGI (HCT-15 colon) was > 100 µM. The TGI (786-0 renal) was > 100 µM, the TGI (CAKI-1 renal) was > 100 µM and the TGI (BT-549 breast) was > 100 µM. The TGI (NCI-H460 lung) was > 100 µM and the TGI (SF-268 CNS) was > 100 µM.
In the case of COc1ccc(/C=N/n2c(C)n[nH]c2=O)cc1, the TGI (NCI-H226 lung) is reported as > 100 µM, the TGI (SF-295 CNS) is reported as > 100 µM and the TGI (A549 NSCLC) is reported as > 100 µM. For the same compound, the TGI (MDA-MB-435) was > 100 µM, the TGI (MALME-3M melanoma) was > 100 µM and the TGI (HCT-15 colon) was > 100 µM. The TGI (786-0 renal) was > 100 µM, the TGI (CAKI-1 renal) was > 100 µM and the TGI (BT-549 breast) was > 100 µM. For the same compound, the TGI (NCI-H460 lung) was > 100 µM and the TGI (SF-268 CNS) was > 100 µM.
In the case of C#CCSc1cnc2ccccc2c1Sc1c[nH]c2ccccc2c1=O, the TGI (NCI-H226 lung) is reported as 89.9 µM, the TGI (SF-295 CNS) is reported as > 100 µM and the TGI (A549 NSCLC) is reported as > 100 µM. For the same compound, the TGI (MDA-MB-435) was > 100 µM, the TGI (MALME-3M melanoma) was > 100 µM and the TGI (HCT-15 colon) was > 100 µM. For the same compound, the TGI (786-0 renal) was 44.9 µM, the TGI (CAKI-1 renal) was > 100 µM and the TGI (BT-549 breast) was > 100 µM. The TGI (NCI-H460 lung) was 59.8 µM and the TGI (SF-268 CNS) was > 100 µM.
